Test results from ChEMBL document CHEMBL1127505, “Structure-activity relationships of new taxoids derived from 14 beta-hydroxy-10-deacetylbaccatin III” (J Med Chem, 1994).

How the values were obtained:
Assay type in all cases: functional, cell-based
A549 = test: In vitro cytotoxicity against human non-small cell lung carcinoma A549
MCF7 [1] = test: In vitro cytotoxicity against human mammary carcinoma MCF-7
A121 = test: In vitro cytotoxicity against human ovarian carcinoma […]
MCF7 [2] = test: In vitro cytotoxicity against human mammary carcinoma cells 180 fold resistant to adriamycin MCF7-R
HT-29 = test: In vitro cytotoxicity against human colon carcinoma HT-29

SMILES | IC50 (A549) | IC50 (MCF7 [1]) | IC50 (A121) | IC50 (MCF7 [2]) | IC50 (HT-29)
CC(=O)O[C@@]12CO[C@@H]1C[C@H](O)[C@@]1(C)C(=O)[C@H](O)C3=C(C)[C@@H](OC(=O)[C@H](O)[C@@H](NC(=O)c4ccccc4)c4ccccc4)[C@@H]4OC(=O)O[C@]4([C@@H](OC(=O)c4ccccc4)C12)C3(C)C (some centres not stated) | 33 nM | 11 nM | 105 nM | > 1000 nM | 24 nM
CC(=O)O[C@@]12CO[C@@H]1C[C@H](O)[C@@]1(C)C(=O)[C@H](O)C3=C(C)[C@@H](O)[C@H](OC(=O)[C@@H](O)C(NC(=O)OC(C)(C)C)c4ccccc4)[C@@](O)([C@@H](OC(=O)c4ccccc4)C12)C3(C)C (some centres not stated) | 31 nM | 26 nM | 80 nM | > 1000 nM | 50 nM
CC(=O)O[C@@]12CO[C@@H]1C[C@H](O)[C@@]1(C)C(=O)[C@H](O)C3=C(C)[C@@H](O)[C@H](OC(=O)[C@@H](O)C(NC(=O)c4ccccc4)c4ccccc4)[C@@](O)([C@@H](OC(=O)c4ccccc4)C12)C3(C)C (some centres not stated) | 512 nM | 269 nM | 1040 nM | > 1000 nM | 248 nM
CC(=O)O[C@@]12CO[C@@H]1C[C@H](O)[C@@]1(C)C(=O)[C@H](O)C3=C(C)[C@@H](OC(=O)[C@H](O)[C@@H](NC(=O)OC(C)(C)C)c4ccccc4)[C@@H]4OC(=O)O[C@]4([C@@H](OC(=O)c4ccccc4)C12)C3(C)C (some centres not stated) | 2.1 nM | 1.8 nM | 6.2 nM | 543 nM | 1.8 nM
CC(=O)O[C@H]1C(=O)[C@@]2(C)[C@H]([C@H](OC(=O)c3ccccc3)[C@]3(O)C[C@H](OC(=O)[C@H](O)[C@@H](NC(=O)c4ccccc4)c4ccccc4)C(C)=C1C3(C)C)[C@]1(OC(C)=O)CO[C@@H]1C[C@@H]2O [PACLITAXEL] | – | – | 6.1 nM | – | 3.2 nM
